For one test, the target named is T1, diTPS-ISO (Picea abies, UniProt Q675L5).
T1 construct: gene TPS-ISO; C-terminal FLAG tag, pEAQ-HT, transiently expressed in Nicotiana benthamiana leaves; own plastid targeting; 92 kDa
T1 sequence (Q675L5 69-867): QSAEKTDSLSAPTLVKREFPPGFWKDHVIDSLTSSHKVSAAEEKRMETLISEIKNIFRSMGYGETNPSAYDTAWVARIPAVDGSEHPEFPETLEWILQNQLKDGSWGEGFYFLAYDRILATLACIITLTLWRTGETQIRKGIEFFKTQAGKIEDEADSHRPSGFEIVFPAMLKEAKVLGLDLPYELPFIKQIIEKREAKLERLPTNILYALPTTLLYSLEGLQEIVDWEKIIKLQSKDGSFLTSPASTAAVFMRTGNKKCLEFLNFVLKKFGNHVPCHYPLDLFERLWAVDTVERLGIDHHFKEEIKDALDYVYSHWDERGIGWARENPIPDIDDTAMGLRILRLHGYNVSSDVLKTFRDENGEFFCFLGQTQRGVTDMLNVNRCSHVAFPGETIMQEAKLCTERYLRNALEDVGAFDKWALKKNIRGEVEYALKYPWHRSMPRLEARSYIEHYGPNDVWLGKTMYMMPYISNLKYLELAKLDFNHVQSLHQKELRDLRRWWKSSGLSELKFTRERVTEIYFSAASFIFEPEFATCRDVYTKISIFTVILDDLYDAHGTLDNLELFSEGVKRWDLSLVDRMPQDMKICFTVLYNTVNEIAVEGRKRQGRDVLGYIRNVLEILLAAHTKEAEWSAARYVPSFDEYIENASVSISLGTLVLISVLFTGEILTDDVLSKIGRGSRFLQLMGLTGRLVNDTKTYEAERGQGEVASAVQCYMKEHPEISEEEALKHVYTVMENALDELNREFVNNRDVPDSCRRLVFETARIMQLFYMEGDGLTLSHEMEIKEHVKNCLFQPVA
Description: transient expression in N. benthamiana leaves, product by GC-MS. The settings on record: endogenous GGPP in leaves, in planta; cyclisation to isopimaradiene.

For a further test, the target named is T2, CYP720B4 (Picea sitchensis, UniProt E5FA70).
T2 construct: ER; 55 kDa
Description: co-expression with diTPS-ISO in N. benthamiana leaves, GC-MS and LC-MS. The settings on record: in planta, endogenous redox partner.

Another test has as its target T3, Tp-Barnes-CYP720B4 (Picea sitchensis, UniProt E5FA70, DEL3-9/V13A, form not given).
T3 construct: Barnes-modified N-terminus preceded by transit peptide (N-terminal 52 residues of Arabidopsis thaliana ferredoxin FedA, GenBank AY128936), partly processed; FLAG tag; chloroplast-targeted in Nicotiana benthamiana leaves; 60 kDa precursor
Description: co-expression with diTPS-ISO, DXS and GGPPs in N. benthamiana leaves, GC-FID and LC-MS. The settings on record: in planta, chloroplast-targeted enzyme.

Another test deals with T4, ΔTm-CYP720B4 (Picea sitchensis, UniProt E5FA70).
T4 construct: N-terminal membrane domain (first 37 amino acids) removed, new start Met from primer, FLAG tag, expressed in Nicotiana benthamiana leaves; 51 kDa
The test is described as above. The settings on record: in planta, endogenous redox partner.

Another test has as its target T5, Barnes-CYP720B4 (Picea sitchensis, UniProt E5FA70, DEL3-9/V13A, form not given).
T5 construct: Barnes-modified N-terminus (text: residues 3-9 deleted, V13A); 54 kDa
Described as above. The settings on record: in planta, endogenous redox partner.

This note sets out measurements from PMC4688937, “Heterologous expression of the isopimaric acid pathway in Nicotiana benthamiana and the effect of N-terminal modifications of the involved cytochrome P450 enzyme” (Journal of Biological Engineering, 2015).

Structures are written as SMILES.

T2 sequence (E5FA70 entry or part of it): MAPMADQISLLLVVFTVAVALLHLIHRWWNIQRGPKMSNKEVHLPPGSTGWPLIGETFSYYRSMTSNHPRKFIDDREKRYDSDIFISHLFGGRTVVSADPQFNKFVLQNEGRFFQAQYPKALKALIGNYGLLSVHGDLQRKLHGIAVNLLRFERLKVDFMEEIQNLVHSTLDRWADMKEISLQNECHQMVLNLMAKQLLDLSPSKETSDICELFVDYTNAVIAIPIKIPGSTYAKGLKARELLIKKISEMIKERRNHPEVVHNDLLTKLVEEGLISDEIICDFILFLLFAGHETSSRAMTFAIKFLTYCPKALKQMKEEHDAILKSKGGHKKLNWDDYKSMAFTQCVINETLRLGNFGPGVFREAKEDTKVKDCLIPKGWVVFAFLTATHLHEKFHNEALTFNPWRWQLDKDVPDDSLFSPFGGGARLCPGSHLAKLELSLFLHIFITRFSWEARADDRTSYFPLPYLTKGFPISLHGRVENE
T3 sequence (E5FA70 entry or part of it DEL3-9/V13A, form open): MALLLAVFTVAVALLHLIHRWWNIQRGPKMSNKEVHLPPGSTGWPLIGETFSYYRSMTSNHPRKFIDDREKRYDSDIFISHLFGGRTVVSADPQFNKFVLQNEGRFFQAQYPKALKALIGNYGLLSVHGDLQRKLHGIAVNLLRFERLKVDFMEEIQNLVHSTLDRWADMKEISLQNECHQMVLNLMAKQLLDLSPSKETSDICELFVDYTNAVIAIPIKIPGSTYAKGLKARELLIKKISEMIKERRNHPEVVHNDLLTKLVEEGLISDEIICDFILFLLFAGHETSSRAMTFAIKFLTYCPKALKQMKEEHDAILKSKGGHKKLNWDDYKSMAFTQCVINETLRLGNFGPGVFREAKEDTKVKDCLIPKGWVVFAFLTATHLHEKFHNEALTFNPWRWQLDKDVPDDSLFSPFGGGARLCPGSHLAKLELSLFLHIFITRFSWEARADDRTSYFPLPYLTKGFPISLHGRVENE
T5 sequence (E5FA70 entry or part of it DEL3-9/V13A, form open): as above
T4 sequence (E5FA70 entry or part of it, stated change not applied): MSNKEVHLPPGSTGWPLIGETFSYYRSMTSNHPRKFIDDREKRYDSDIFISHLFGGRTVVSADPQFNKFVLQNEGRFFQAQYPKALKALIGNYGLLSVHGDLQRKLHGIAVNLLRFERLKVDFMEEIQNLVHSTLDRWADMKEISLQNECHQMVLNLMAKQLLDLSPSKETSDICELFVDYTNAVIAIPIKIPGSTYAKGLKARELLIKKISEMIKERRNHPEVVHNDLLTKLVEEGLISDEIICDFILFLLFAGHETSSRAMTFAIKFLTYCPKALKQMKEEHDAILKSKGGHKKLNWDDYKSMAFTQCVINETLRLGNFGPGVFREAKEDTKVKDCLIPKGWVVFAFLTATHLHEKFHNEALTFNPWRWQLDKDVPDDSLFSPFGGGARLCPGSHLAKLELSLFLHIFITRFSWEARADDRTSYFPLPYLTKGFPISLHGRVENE

For the compound `CC(C)=CCC/C(C)=C/CC/C(C)=C/CC/C(C)=C/COP(=O)(O)OP(=O)(O)O` [GGPP], on diTPS-ISO, the “transient expression in N. benthamiana leaves, product by GC-MS” value was “The expressed diTPS-ISO is active as confirmed by the formation of isopimaradiene”.

As for `C=C[C@@]1(C)CC[C@H]2C(=CC[C@H]3C(C)(C)CCC[C@]23C)C1` [isopimaradiene], the “transient expression in N. benthamiana leaves, product by GC-MS” value on diTPS-ISO is given as “active as confirmed by the formation of isopimaradiene in the infiltrated leaves”. Moreover, the “co-expression with diTPS-ISO in N. benthamiana leaves, GC-MS and LC-MS” value at CYP720B4 was “Upon co-expression with CYP720B4, isopimaradiene was depleted and isopimaric acid accumulated”. The “co-expression with diTPS-ISO, DXS and GGPPs in N. benthamiana leaves, GC-FID and” value at Tp-Barnes-CYP720B4 is recorded as “In contrast, the Tp-Barnes-CYP720B4 was active”; on ΔTm-CYP720B4, “CYP720B4 remains active even after complete removal of the transmembrane domain”; on Barnes-CYP720B4, “Barnes-CYP720B4 activity does not seem to deteriorate after the N-terminal modification”.

For `C=C[C@@]1(C)CC[C@H]2C(=CC[C@@H]3[C@]2(C)CCC[C@@]3(C)C(=O)O)C1` [isopimaric acid], the “co-expression with diTPS-ISO in N. benthamiana leaves, GC-MS and LC-MS” value on CYP720B4 was “isopimaradiene was depleted and isopimaric acid accumulated (Fig. 2c, d), indicating efficient conversion”.
